From the supplement of paper PMC5908809

How the values were obtained:
[1] = system: IMC-1 (IL-2 20 ng/mL); experiment: drug sensitivity score (DSS) (DSS units); higher = more sensitive; extreme values may be limits of the assay; conditions: 72 h
[2] = system: normal primary NK cells, pool 3 (3 donors) (IL-2 2.5 ng/mL); experiment: as above; conditions: 72 h
[3] = system: YT (IL-2 2.5 ng/mL); experiment: as above; conditions: 72 h
[4] = system: NK-92 (IL-2 2.5 ng/mL); experiment: as above; conditions: 72 h
[5] = system: SNK-6 (IL-2 2.5 ng/mL); experiment: as above; conditions: 72 h
[6] = system: NK-YS (IL-2 2.5 ng/mL); experiment: as above; conditions: 72 h
[7] = system: NKL (IL-2 2.5 ng/mL); experiment: as above; conditions: 72 h
[8] = system: DERL-7 (IL-2 2.5 ng/mL); experiment: as above; conditions: 72 h
[9] = system: normal primary NK cells, pool 1 (3 donors) (IL-2 2.5 ng/mL); experiment: as above; conditions: 72 h
[10] = system: KHYG-1 (IL-2 2.5 ng/mL); experiment: as above; conditions: 72 h
[11] = system: normal primary NK cells, pool 1 (3 donors), resting (IL-2 0 ng/mL); experiment: as above; conditions: 72 h
[12] = system: KAI3 (IL-2 2.5 ng/mL); experiment: as above; conditions: 72 h
[13] = system: normal primary NK cells, pool 2 (3 donors) (IL-2 2.5 ng/mL); experiment: as above; conditions: 72 h
[14] = system: normal NK cells expanded with K562-aAPC; experiment: percent inhibition of viability; higher = more inhibition; conditions: 72 h, IL-2 2.5 ng/mL
Method: (§1)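 Drug sensitivity and resistance testing on K562-aAPC-expanded normal NK cells: 5 concentrations (10-fold steps over a 10,000-fold range), 72 h at 37 °C, viability by CellTiter-Glo normalised to DMSO and benzethonium chloride controls; DSS from the fitted curve.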

[15] = system: IMC-1 (IL-2 20 ng/mL); experiment: as above; conditions: 72 h
[16] = system: normal primary NK cells, pool 3 (3 donors) (IL-2 2.5 ng/mL); experiment: as above; conditions: 72 h
[17] = system: YT (IL-2 2.5 ng/mL); experiment: as above; conditions: 72 h
[18] = system: NK-92 (IL-2 2.5 ng/mL); experiment: as above; conditions: 72 h
[19] = system: SNK-6 (IL-2 2.5 ng/mL); experiment: as above; conditions: 72 h
[20] = system: NK-YS (IL-2 2.5 ng/mL); experiment: as above; conditions: 72 h
[21] = system: NKL (IL-2 2.5 ng/mL); experiment: as above; conditions: 72 h
[22] = system: DERL-7 (IL-2 2.5 ng/mL); experiment: as above; conditions: 72 h
[23] = system: normal primary NK cells, pool 1 (3 donors) (IL-2 2.5 ng/mL); experiment: as above; conditions: 72 h
[24] = system: KHYG-1 (IL-2 2.5 ng/mL); experiment: as above; conditions: 72 h
[25] = system: normal primary NK cells, pool 1 (3 donors), resting (IL-2 0 ng/mL); experiment: as above; conditions: 72 h
[26] = system: KAI3 (IL-2 2.5 ng/mL); experiment: as above; conditions: 72 h
[27] = system: normal primary NK cells, pool 2 (3 donors) (IL-2 2.5 ng/mL); experiment: as above; conditions: 72 h
[28] = system: normal NK cells expanded with K562-aAPC; experiment: drug sensitivity score (DSS) (DSS units); higher = more sensitive; extreme values may be limits of the assay; conditions: 72 h; IL-2 2.5 ng/mL
Method: as §1

N#Cc1ccc2[nH]c(O)c(-c3ccc(CN4CCOCC4)cn3)c2c1 [AZD-1080] (max concentration tested 10000 nM)
Conditions | drug sensitivity score
[1] | 3.76
[2] | 0.08
[3] | 0.3
[4] | 0
[5] | 0
[6] | 0.06
[7] | 0.66
[8] | 4.59
[9] | 0
[10] | 0.09
[11] | 0
[12] | 0.09
[13] | 0
[28] | 0.28

percent inhibition of viability [%]
Conditions | 1 nM | 10 nM | 100 nM | 1000 nM | 10000 nM
[14] | -8.89 | -11.1 | -9.66 | -4.69 | 17.9
[15] | -6.19 | -4.98 | -2.55 | -0.22 | 68.7
[16] | 6.51 | 4.2 | 7.89 | -9.63 | 14.5
[17] | -4.13 | -5.06 | -2.61 | -7.8 | 19
[18] | -5.77 | -9.41 | -10.5 | -11.2 | -14.5
[19] | -12 | -18.9 | -7.02 | -36.2 | -41.6
[20] | -7.92 | -9.02 | -9.19 | -12.2 | 14.6
[21] | -2.17 | -4.57 | -11.4 | -10.8 | 26.2
[22] | 0.69 | -2.27 | -0.41 | -4.2 | 88.5
[23] | -13.1 | 1.31 | -13.3 | -7.59 | -4.41
[24] | -9.77 | -11.1 | -7.95 | -10.2 | 15.1
[25] | -0.71 | 6.84 | 6.15 | -35.3 | -109
[26] | -2.28 | -5.79 | -9.97 | -21.1 | 16.1
[27] | 3.02 | 1.99 | -1.33 | -5.26 | 2.97

CN(C)CCN1C(=O)c2cccc3cc(N)cc(c23)C1=O [Amonafide] (max concentration tested 10000 nM)
Conditions | drug sensitivity score
[1] | 8.17
[2] | 6.87
[3] | 7.63
[4] | 9.91
[5] | 8.74
[6] | 10
[7] | 9.52
[8] | 8.69
[9] | 4.95
[10] | 8.07
[11] | 6.59
[12] | 10.4
[13] | 6.19
[28] | 9.65

percent inhibition of viability [%]
Conditions | 1 nM | 10 nM | 100 nM | 1000 nM | 10000 nM
[14] | 3.02 | 8.13 | 5.46 | 27.6 | 101
[15] | 1.06 | 3.1 | 5.35 | 15.8 | 100
[16] | 5.44 | -1.16 | 1.98 | 8.95 | 98.1
[17] | 3.19 | 6.52 | 7.92 | 11.9 | 104
[18] | 17.3 | 3.38 | 20.4 | 29.9 | 103
[19] | 21.2 | 8.85 | 20.2 | 23.6 | 99.5
[20] | 2.33 | 5.61 | 10.8 | 30.8 | 102
[21] | -9.44 | 0.79 | -4.03 | 33.1 | 89.8
[22] | -0.77 | 2.31 | -12.6 | 19.6 | 101
[23] | -3.82 | -10.6 | -8.88 | -6.27 | 97.5
[24] | 6.52 | 2.23 | 12.9 | 14.8 | 103
[25] | 6.85 | -15.8 | -2.6 | 9.89 | 89.3
[26] | 12.7 | 9.96 | 3.38 | 35.1 | 103
[27] | -8.57 | -3.21 | 0.92 | 6.12 | 95

NC(=O)NO [Hydroxyurea] (max concentration tested 100000 nM)
Conditions | drug sensitivity score
[1] | 0
[2] | 0
[3] | 0.2
[4] | 6.31
[5] | 0
[6] | 1.89
[7] | 6.01
[8] | 0.03
[9] | 0
[10] | 1.16
[11] | 4.95
[12] | 8.49
[13] | 0.1
[28] | 4.07

percent inhibition of viability [%]
Conditions | 10 nM | 100 nM | 1000 nM | 10000 nM | 100000 nM
[14] | 2.1 | -5.76 | -2.1 | 8.98 | 49.1
[15] | -6.14 | -2.56 | -2.39 | -0.1 | 9.95
[16] | 6.75 | 1.29 | 8.4 | -5.82 | 7.32
[17] | -10.8 | -9.74 | -3.92 | 0.46 | 14.2
[18] | 6.26 | 6.63 | 2.07 | 31.3 | 48.5
[19] | 15.2 | -7.82 | -13.1 | -12.9 | 1.36
[20] | -0.41 | -2.69 | -1.46 | 3.98 | 29.3
[21] | 4.79 | -0.36 | 15 | 24.1 | 48.3
[22] | 2.03 | -0.08 | 8.03 | -3.4 | 12.6
[23] | -2.1 | 5.26 | 3.61 | -8.28 | 4.04
[24] | -10.9 | -7.34 | -3.16 | 8.85 | 17.1
[25] | 15.8 | 15.8 | 15.4 | 15.8 | 15.6
[26] | 24.5 | 13.1 | 12.7 | 20.9 | 51.8
[27] | 1.52 | 0.13 | 10.8 | 4.35 | 13.4
